# Measured values reported in patent publication US20250040549A1, “FUNGICIDAL COMPOSITIONS” (SYNGENTA CROP PROTECTION AG, priority 2021, published 2025).
# How the values were obtained:
# [1] = tested on: Mycosphaerella arachidis Syn. Cercospora arachidicola; test: Mycosphaerella arachidis growth inhibition in nutrient broth, microtiter plate; assay type: cell-based; details: alone, 5-6 days
# Description: Mycosphaerella arachidis Syn. Cercospora arachidicola (Brown Leaf Spot of Peanut): Conidia of the fungus from cryogenic storage were directly mixed into nutrient broth (PDB potato dextrose broth). A DMSO solution of the test compounds was placed into a microtiter plate (96-well format) and the nutrient broth containing the fungal spores was added to it. The test plates were incubated at 24 C and the inhibition of growth was determined photometrically after 5-6 days at 620 nm
# [2] = tested on: Alternaria solani; test: Alternaria solani growth inhibition in nutrient broth, microtiter plate; assay type: cell-based; details: alone, 48 hrs
# Description: Alternaria solani (Early Blight Tomato/Potato): Conidia of the fungus from cryogenic storage were directly mixed into nutrient broth (PDB potato dextrose broth). A DMSO solution of the test compounds was placed into a microtiter plate (96-well format) and the nutrient broth containing the fungal spores was added to it. The test plates were incubated at 24 C and the inhibition of growth was determined photometrically after 48 hrs.
# [3] = tested on: Sclerotinia sclerotiorum; test: Sclerotinia sclerotiorum growth inhibition in nutrient broth, microtiter plate; assay type: cell-based; details: alone, 72 hrs
# Description: Sclerotinia sclerotiorum (Cottony Rot, White Mold, Etc.): Mycelial fragments of the fungus prepared from a fresh liquid culture were directly mixed into nutrient broth (PDB potato dextrose broth). A DMSO solution of the test compounds was placed into a microtiter plate (96-well format) and the nutrient broth containing the fungal spores was added to it. The test plates were incubated at 24 C and the inhibition of growth was determined photometrically after 72 hrs at 620 nm.
# [4] = tested on: Botrytis cinerea; test: Botrytis cinerea growth inhibition in nutrient broth, microtiter plate; assay type: cell-based; details: alone, 72 hrs
# Description: Botrytis cinerea (Gray Mould): Conidia of the fungus from cryogenic storage were directly mixed into nutrient broth ([…] potato dextrose broth). A DMSO solution of the test compounds was placed into a microtiter plate (96-well format) and the nutrient broth containing the fungal spores was added to it. The test plates were incubated at 24 C and the inhibition of growth was determined photometrically after 72 hrs.
# [5] = tested on: Glomerella Lagenarium Syn. Colletotrichum lagenarium; test: Glomerella lagenarium growth inhibition in nutrient broth, microtiter plate; assay type: cell-based; details: alone, 72 hrs
# Description: Glomerella Lagenarium Syn. Colletotrichum lagenarium (Anthracnose of Cucurbits): Conidia of the fungus from cryogenic storage were directly mixed into nutrient broth (PDB potato dextrose broth). A DMSO solution of the test compounds was placed into a microtiter plate (96-well format) and the nutrient broth containing the fungal spores was added to it. The test plates were incubated at 24 C and the inhibition of growth was determined photometrically after 72 hrs at 620 nm.
# [6] = tested on: Phakopsora pachyrhizi (Asian soybean rust); test: Phakopsora pachyrhizi on leaf disks from sprayed soybean plants; assay type: in vivo; details: alone, 11 to 14 days after inoculation; for inhibition at 1 g/ha: 1 g ai/ha
# Description: Phakopsora Pachyrhizi (Soybean Rust):
# Whole soybean plants are treated with the recited active ingredients 4 weeks after planting. 1 day after spraying leaf disks are cut from the first trifoliate leaf. Five repetitions at each rate are conducted. The leaf disks are inoculated with Phakopsora pachyrhizi (Asian soybean rust) one day after treatment. Evaluation of the leaf disks is conducted 11 to 14 days after inoculation and the activity is derived from the relation of the treated vs untreated, infested check. The rates of the active ingredients used are given in Table as g active ingredient (a.i.)/ha.
# [7] = tested on: Septoria tritici; test: Septoria tritici growth inhibition in nutrient broth, microtiter plate; assay type: cell-based; details: alone, 72 hrs
# Description: Septoria tritici (Leaf Blotch): Conidia of the fungus from cryogenic storage were directly mixed into nutrient broth (PDB potato dextrose broth). A DMSO solution of the test compounds was placed into a microtiter plate (96-well format) and the nutrient broth containing the fungal spores was added to it. The test plates were incubated at 24 C and the inhibition of growth was determined photometrically after 72 hrs.
# [8] = Phakopsora pachyrhizi, foliar, read-out: Observed Activity (%)
compound,measurement,setting,value
"COC(=O)NCc1cc(-c2ccn(-c3c(F)cc(C(C)C)cc3F)n2)ccc1C [Compound A-1.1, Methyl N-[[5-[1-(2,6-difluoro-4-isopropyl-phenyl)pyrazol-3-yl]-2-methyl-phenyl]methyl]carbamate]",Observed Activity (%),[1]; 0.001 g ai/ha,0%
same,Observed Activity (%),[1]; 0.005 g ai/ha,20%
same,Observed Activity (%),[2]; 0.005 g ai/ha,0%
same,Observed Activity (%),[3]; 0.001 g ai/ha,0%
same,Observed Activity (%),[3]; 0.005 g ai/ha,0%
same,Observed Activity (%),[4]; 0.005 g ai/ha,0%
same,Observed Activity (%),[5]; 0.001 g ai/ha,0%
same,Observed Activity (%),[5]; 0.005 g ai/ha,0%
same,inhibition at 1 g/ha,[6]; [8],0%
same,Observed Activity (%),[7]; 0.001 g ai/ha,20%
"COC(=O)NCc1cc(-c2ccn(-c3c(F)cc(C4CC4)cc3F)n2)ccc1C [Compound A-1.3, methyl N-[[5-[1-(4-cyclopropyl-2,6-difluoro-phenyl)pyrazol-3-yl]-2-methyl-phenyl]methyl]carbamate]",Observed Activity (%),[1]; 0.001 g ai/ha,0%
same,Observed Activity (%),[1]; 0.005 g ai/ha,50%
same,Observed Activity (%),[2]; 0.005 g ai/ha,20%
same,Observed Activity (%),[2]; 0.01 g ai/ha,50%
same,Observed Activity (%),[3]; 0.001 g ai/ha,0%
same,Observed Activity (%),[3]; 0.005 g ai/ha,0%
same,Observed Activity (%),[4]; 0.005 g ai/ha,0%
same,Observed Activity (%),[5]; 0.001 g ai/ha,0%
same,Observed Activity (%),[5]; 0.005 g ai/ha,0%
same,inhibition at 0.5 g/ha,"[6]; Phakopsora pachyrhizi, foliar, 0.5 g ai/ha, read-out: Observed Activity (%)",0%
same,inhibition at 1 g/ha,[6]; [8],2%
same,Observed Activity (%),[7]; 0.001 g ai/ha,50%
"O=C(Nc1ccccc1F)c1ccc(-c2noc(C(F)(F)F)n2)cc1 [Flufenoxadiazam, flufenoxadiazam]",Observed Activity (%),[2]; 2.22 g ai/ha,0%
same,Observed Activity (%),[2]; 6.66 g ai/ha,0%
same,Observed Activity (%),[2]; 20 g ai/ha,0%
same,Observed Activity (%),[6]; 0.25 g ai/ha,0%
same,Observed Activity (%),[6]; 0.5 g ai/ha,10%
"CCC(=O)Oc1c(OC)ccnc1C(=O)N[C@@H](C)C(=O)O[C@@H](C)[C@@H](C)c1ccccc1C [Metarylpicoxamid, metarylpicoxamid]",Observed Activity (%),[1]; 0.0080 g ai/ha,20%
same,Observed Activity (%),[1]; 0.0246 g ai/ha,50%
same,Observed Activity (%),[2]; 0.074 g ai/ha,0%
same,Observed Activity (%),[2]; 0.22 g ai/ha,20%
same,Observed Activity (%),[2]; 0.66 g ai/ha,50%
same,Observed Activity (%),[3]; 2 g ai/ha,50%
same,Observed Activity (%),[4]; 0.0246 g ai/ha,0%
same,Observed Activity (%),[4]; 0.074 g ai/ha,20%
same,Observed Activity (%),[4]; 0.22 g ai/ha,50%
same,Observed Activity (%),[5]; 0.22 g ai/ha,0%
same,Observed Activity (%),[5]; 0.66 g ai/ha,0%
same,Observed Activity (%),[5]; 2 g ai/ha,70%
same,Observed Activity (%),[6]; 0.25 g ai/ha,0%
same,Observed Activity (%),[6]; 0.5 g ai/ha,34%
same,Observed Activity (%),[7]; 0.008 g ai/ha,20%
same,Observed Activity (%),[7]; 0.0246 g ai/ha,50%
same,Observed Activity (%),[7]; 0.074 g ai/ha,70%
